Source: ChEMBL document CHEMBL3879897, “1,4-dithiin and 1,4-dithiepin-1,1,4,4, tetroxide derivatives useful as antagonists of the human galanin receptor” (2002)

Legend:
Format in all cases: subcellular
[1] = target: T1, Galanin receptor type 1 (Rattus norvegicus) (UniProt Q62805); assay: (§1) Antagonist activity at galanin -1 receptor in rat brain synaptosomes assessed as galanin-mediated suppression of K+-Krebs-ringer solution-induced [3H]-acetylcholine secretion at 10 uM measured 10 mins post 30 sces superfusing with K+-Krebs-ringer solution by liquid scintillation spectrometric method (reference value: […]%)
T1 sequence (whole entry): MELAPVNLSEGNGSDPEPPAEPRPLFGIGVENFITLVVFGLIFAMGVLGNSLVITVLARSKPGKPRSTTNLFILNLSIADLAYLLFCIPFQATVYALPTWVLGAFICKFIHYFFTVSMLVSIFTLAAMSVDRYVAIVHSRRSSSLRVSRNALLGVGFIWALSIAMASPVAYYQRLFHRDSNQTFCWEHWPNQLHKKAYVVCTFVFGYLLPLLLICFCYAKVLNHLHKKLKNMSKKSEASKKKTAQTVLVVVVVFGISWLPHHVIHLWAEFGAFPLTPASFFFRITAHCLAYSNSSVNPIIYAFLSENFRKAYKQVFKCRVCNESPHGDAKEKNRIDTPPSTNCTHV

[2] = target: T1, Galanin receptor type 1 (Rattus norvegicus); assay: as §1, with “at 1” for “at 10”
[3] = target: T1, Galanin receptor type 1 (Rattus norvegicus); assay: Antagonist activity at galanin -1 receptor in rat brain synaptosomes assessed as galanin-mediated suppression of basal [3H]-acetylcholine secretion at 10 uM measured 10 mins post 30 sces superfusing with K+-Krebs-ringer solution by liquid scintillation spectrometric method (reference value: […]%)
[4] = target: T1, Galanin receptor type 1 (Rattus norvegicus); assay: Antagonist activity at galanin -1 receptor in rat brain synaptosomes assessed as galanin-mediated suppression of basal [3H]-acetylcholine secretion at 1 uM measured 10 mins post 30 sces superfusing with K+-Krebs-ringer solution by liquid scintillation spectrometric method (reference value: […]%)

inhibition [1] [%]	inhibition [2] [%]	inhibition [3] [%]	inhibition [4] [%]	Compound
22.3	35.2	37	39.2	O=S1(=O)C=C(c2ccc(I)cc2)S(=O)(=O)CCC1
–	23.9	37	38.9	O=S1(=O)C=C(c2cccc(F)c2)S(=O)(=O)CCC1
